Results reported in US12303520B2, “Aqueous nebulization composition” (Nephron Pharmaceuticals Corporation, priority 2017, dated 2025).

Columns and labels:
[1] = background statement, cited from earlier work
[2] = Solubility of budesonide in solvents; type: physicochemical
Source text: Previous efforts to provide stable, inhalable budesonide solutions, including use of cyclodextrins or use of a modified budesonide, have not been proven pharmaceutically acceptable.

In the case of `CCC[C@@H]1O[C@@H]2C[C@H]3C4CCC5=CC(=O)C=CC5(C)[C@H]4[C@@H](O)CC3(C)[C@]2(C(=O)CO)O1` (mixture of isomers) [Budesonide, (RS)-11-beta, 16-alpha, 17,21-tetrahydroxypregna-I, 4-diene-3,20-dione cyclic 16,17-acetal with butyraldehyde], the “Solubility of budesonide in heptanes” value ([1]; heptanes) is given as “practically insoluble”, the “Solubility of budesonide in alcohols” value ([1]; many alcohols (particularly polyhydric alcohols and organic, water-soluble glycols)) is given as “sparingly soluble” and the “Solubility of budesonide in water” value ([1]; water) is given as “practically insoluble”. For the same compound, the “Solubility of budesonide in pure glycerol” value [2] was “not to be soluble”.
